Test results reported in the NIST ThermoML archive (doi:10.1016/j.fluid.2014.03.004).
Numbers after ± are expanded uncertainties.

Conditions: 101.33 kPa, Liquid; for mass density: Vibrating tube method; for electrical conductivity: Alternating current cell with electrodes; for viscosity: Falling or rolling sphere viscometry

Structure (SMILES) | mass density (293.15 K) | electrical conductivity (298.15 K) | viscosity (298.15 K) | mass density (298.15 K) | viscosity (303.15 K) | mass density (303.15 K) | electrical conductivity (303.16 K) | electrical conductivity (313.15 K) | viscosity (313.15 K) | mass density (313.15 K) | electrical conductivity (323.15 K) | viscosity (323.15 K) | mass density (323.15 K) | electrical conductivity (333.15 K) | viscosity (333.15 K) | mass density (333.15 K) | electrical conductivity (343.15 K) | mass density (343.15 K) | viscosity (353.15 K) | mass density (353.15 K) | further results
CCCC[n+]1ccn(C2CCCC2)c1.O=S(=O)([N-]S(=O)(=O)C(F)(F)F)C(F)(F)F | 1383.1 ± 3.7 kg/m3 | 0.197 ± 0.008 S/m | 85.1 ± 3.2 mPa·s | 1378.52 ± 3.7 kg/m3 | 67.9 ± 2.4 mPa·s | 1373.96 ± 3.7 kg/m3 | 0.246 ± 0.01 S/m | 0.361 ± 0.014 S/m | 44.3 ± 1.5 mPa·s | 1364.86 ± 3.6 kg/m3 | 0.504 ± 0.02 S/m | 30.8 ± 1.1 mPa·s | 1355.84 ± 3.6 kg/m3 | 0.668 ± 0.027 S/m | 22.3 ± 0.8 mPa·s | 1346.87 ± 3.5 kg/m3 | 0.878 ± 0.035 S/m | 1337.96 ± 3.5 kg/m3 | 13 ± 0.4 mPa·s | 1329.11 ± 3.4 kg/m3 | viscosity (343.15 K): 16.7 ± 0.6 mPa·s; electrical conductivity (353.15 K): 1.11 ± 0.045 S/m
CCCCC[n+]1ccn(CCCC)c1.O=S(=O)([N-]S(=O)(=O)C(F)(F)F)C(F)(F)F | 1322.07 ± 3.4 kg/m3 | 0.164 ± 0.007 S/m | 75.9 ± 2.7 mPa·s | 1317.6 ± 3.4 kg/m3 | 61.5 ± 2.1 mPa·s | 1313.16 ± 3.4 kg/m3 | 0.205 ± 0.008 S/m | 0.303 ± 0.012 S/m | 40.3 ± 1.4 mPa·s | 1304.29 ± 3.3 kg/m3 | 0.427 ± 0.017 S/m | 28 ± 1 mPa·s | 1295.48 ± 3.3 kg/m3 | 0.58 ± 0.023 S/m | 20.2 ± 0.7 mPa·s | 1286.72 ± 3.2 kg/m3 | 0.757 ± 0.03 S/m | 1278.02 ± 3.2 kg/m3 | 11.6 ± 0.4 mPa·s | 1269.36 ± 3.1 kg/m3 | electrical conductivity (353.16 K): 0.96 ± 0.038 S/m
CCCCn1cc[n+](CCC(C)C)c1.O=S(=O)([N-]S(=O)(=O)C(F)(F)F)C(F)(F)F | 1322.37 ± 3.4 kg/m3 | 0.145 ± 0.006 S/m | 93 ± 3.6 mPa·s | 1318.1 ± 3.4 kg/m3 | 73.2 ± 2.6 mPa·s | 1313.65 ± 3.4 kg/m3 | 0.182 ± 0.007 S/m | 0.273 ± 0.011 S/m | 46.5 ± 1.6 mPa·s | 1304.82 ± 3.3 kg/m3 | 0.389 ± 0.016 S/m | 31.5 ± 1.1 mPa·s | 1296.03 ± 3.3 kg/m3 | 0.529 ± 0.021 S/m | 22.4 ± 0.8 mPa·s | 1287.3 ± 3.2 kg/m3 | 0.694 ± 0.028 S/m | 1278.62 ± 3.2 kg/m3 | 12.6 ± 0.4 mPa·s | 1269.99 ± 3.1 kg/m3 | electrical conductivity (353.16 K): 0.883 ± 0.035 S/m
